Experimental data: article PMC9120017, “Inhibition mechanism of the chloride channel TMEM16A by the pore blocker 1PBC” (Nature Communications, 2022)
Like-named read-outs stand apart in the source and are kept apart here.

Biological target: T1, mouse TMEM16A mutant V599A (Mus musculus, UniProt Q8BHY3, V599A)
T1 construct: expressed in transfected cells; host or cells: HEK293T
T1 sequence (Q8BHY3 1-960 V599A): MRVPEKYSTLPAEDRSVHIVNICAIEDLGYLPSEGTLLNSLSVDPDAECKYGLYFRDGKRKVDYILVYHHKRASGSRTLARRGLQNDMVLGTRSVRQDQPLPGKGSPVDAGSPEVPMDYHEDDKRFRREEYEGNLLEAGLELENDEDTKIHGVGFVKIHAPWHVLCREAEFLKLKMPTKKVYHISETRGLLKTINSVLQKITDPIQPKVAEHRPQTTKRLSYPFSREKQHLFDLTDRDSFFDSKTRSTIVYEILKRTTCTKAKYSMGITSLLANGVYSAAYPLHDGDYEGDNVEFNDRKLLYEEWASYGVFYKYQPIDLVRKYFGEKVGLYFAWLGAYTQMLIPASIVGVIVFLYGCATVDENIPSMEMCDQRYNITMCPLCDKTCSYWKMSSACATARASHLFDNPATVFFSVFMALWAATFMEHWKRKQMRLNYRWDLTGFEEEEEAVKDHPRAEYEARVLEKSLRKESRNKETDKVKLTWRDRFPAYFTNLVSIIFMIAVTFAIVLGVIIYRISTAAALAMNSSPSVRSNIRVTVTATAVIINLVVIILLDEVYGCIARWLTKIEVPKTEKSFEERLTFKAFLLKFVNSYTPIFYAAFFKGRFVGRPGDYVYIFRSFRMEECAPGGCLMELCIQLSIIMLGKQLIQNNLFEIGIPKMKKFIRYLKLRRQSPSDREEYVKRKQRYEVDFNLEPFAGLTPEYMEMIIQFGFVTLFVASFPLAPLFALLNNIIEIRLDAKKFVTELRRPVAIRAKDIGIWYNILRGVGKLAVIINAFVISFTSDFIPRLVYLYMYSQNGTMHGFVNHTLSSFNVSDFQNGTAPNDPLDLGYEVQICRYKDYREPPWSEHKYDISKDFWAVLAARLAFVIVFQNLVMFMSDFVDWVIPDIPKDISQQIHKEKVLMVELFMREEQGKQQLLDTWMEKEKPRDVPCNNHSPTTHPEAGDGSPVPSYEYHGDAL
Assay: Inside-out patch recording of 1PBC block, mutant V599A
Format: cell-based
Details: for IC50: 15 µM Ca2+
Description: HEK293T cells (ATCC CRL-1573) were maintained in Dulbecco’s modified Eagle’s medium (DMEM; Sigma-Aldrich) supplemented with 10 U ml^−1 penicillin, 0.1 mg ml^−1 streptomycin (Sigma-Aldrich), 2 mM L-glutamine (Sigma-Aldrich), and 10% FBS (Sigma-Aldrich) in a humidified atmosphere containing 5% CO2 at 37 °C. HEK293S GnTI^− cells (ATCC CRL-3022) were maintained in HyClone HyCell TransFx-H medium (GE Healthcare) supplemented with 10 U ml^−1 penicillin, 0.1 mg ml^−1 streptomycin, 4 mM L-glutamine, 0.15% poloxamer 188 (Sigma-Aldrich), and 1% FBS in an atmosphere containing 5% CO2 at 185 rpm at 37 °C. The ac splice variant of mouse TMEM16A (UniProt ID: Q8BHY3), mouse TMEM16B (UniProt ID: Q8CFW1), or mouse TMEM16F (UniProt ID: Q6P9J9) bearing a 3C cleavage site, a Venus YFP, a Myc tag, and a Streptavidin-binding peptide (SBP) downstream of the open reading frame in a modified pcDNA3.1 vector (Invitrogen) were used as described previously[21],[31]. Mutations were introduced using a modified QuikChange method[58] and were verified by sequencing.
HEK293T cells were transfected with 3–4 μg DNA per 6 cm Petri dish using the calcium phosphate co-precipitation method and were used within 24–96 h after transfection. Recordings were performed on inside-out patches excised from HEK293T cells expressing the construct of interest. Patch pipettes were pulled from borosilicate glass capillaries (O.D. 1.5 mm, I.D. 0.86 mm, Sutter Instrument) and were fire-polished with a microforge (Narishige) before use. Pipette resistance was typically 3–8 MΩ when filled with the recording solutions detailed below. Seal resistance was typically 4 GΩ or higher. Voltage-clamp recordings were made using Axopatch 200B, Digidata 1550, and Clampex 10.7 (Molecular Devices). Analog signals were filtered with the in-built 4-pole Bessel filter at 10 kHz and were digitized at 20 kHz. Solution exchange was achieved using a gravity-fed system through a theta glass pipette mounted on an ultra-fast piezo-driven stepper (Siskiyou). […] All recordings were performed at 20 °C.
A symmetrical ionic condition was used throughout. Stock solution with Ca^2+-EGTA contained 150 mM NaCl, 5.99 mM Ca(OH)2, 5 mM EGTA, and 10 mM HEPES at pH 7.40. Stock solution with EGTA contained 150 mM NaCl, 5 mM EGTA, and 10 mM HEPES at pH 7.40. Free Ca^2+ concentrations were adjusted by mixing the stock solutions at the required ratios calculated using the WEBMAXC program (http://web.stanford.edu/~cpatton/webmaxcS.htm). Patch pipettes were filled with the stock solution with Ca^2+-EGTA, which has a free Ca^2+ concentration of 1 mM. 1PBC (ChemBridge) stock was reconstituted in anhydrous DMSO (Sigma-Aldrich) at 100 mM and stored at −20 °C. Working solutions with 1PBC were prepared by serial dilution. Unless otherwise stated, experiments were performed at a saturating Ca^2+ concentration as shown in Supplementary Table 1 and the primary data were corrected for current rundown as described previously[21],[25].
Concentration-response relations, obtained from the ratio of the I-V plots before and after the application of the blocker, were fitted to the Hill equation,1 I/Imax=1/1+IC50/[blocker]^h where I/Imax is the normalized current responses, IC50 defines the concentration at which inhibition is at its half-maximum, and h is the Hill coefficient.

IC50 (0 mV): 69.5 µM
remaining activity at 3 µM (0 mV, 1PBC conc 3, read-out: relative current in 1PBC (avr)): 93.5%
remaining activity at 10 µM (0 mV, 1PBC conc 10, read-out: relative current in 1PBC (avr)): 87.7%
remaining activity at 30 µM (0 mV, 1PBC conc 30, read-out: relative current in 1PBC (avr)): 72%
remaining activity at 100 µM (0 mV, 1PBC conc 100, read-out: relative current in 1PBC (avr)): 39.4%
remaining activity at 3 µM (3 µM 1PBC, +80 mV, saturating Ca2+ (15 µM), read-out: I/Imax): 93.3%
remaining activity at 3 µM (3 µM 1PBC, -80 mV, saturating Ca2+ (15 µM), read-out: I/Imax): 94.9%
remaining activity at 10 µM (10 µM 1PBC, +80 mV, saturating Ca2+ (15 µM), read-out: I/Imax): 84%
remaining activity at 10 µM (10 µM 1PBC, -80 mV, saturating Ca2+ (15 µM), read-out: I/Imax): 91.7%
remaining activity at 30 µM (30 µM 1PBC, +80 mV, saturating Ca2+ (15 µM), read-out: I/Imax): 62.6%
remaining activity at 30 µM (30 µM 1PBC, -80 mV, saturating Ca2+ (15 µM), read-out: I/Imax): 78.1%
remaining activity at 100 µM (100 µM 1PBC, +80 mV, saturating Ca2+ (15 µM), read-out: I/Imax): 27.8%
remaining activity at 100 µM (100 µM 1PBC, -80 mV, saturating Ca2+ (15 µM), read-out: I/Imax): 50.8%
IC50 (20 mV): 61.3 µM
remaining activity at 3 µM (20 mV, 1PBC conc 3, read-out: relative current in 1PBC (avr)): 93.3%
remaining activity at 10 µM (20 mV, 1PBC conc 10, read-out: relative current in 1PBC (avr)): 86.6%
remaining activity at 30 µM (20 mV, 1PBC conc 30, read-out: relative current in 1PBC (avr)): 69.3%
remaining activity at 100 µM (20 mV, 1PBC conc 100, read-out: relative current in 1PBC (avr)): 36%
IC50 (40 mV): 55.5 µM
remaining activity at 3 µM (40 mV, 1PBC conc 3, read-out: relative current in 1PBC (avr)): 93.6%
remaining activity at 10 µM (40 mV, 1PBC conc 10, read-out: relative current in 1PBC (avr)): 86.2%
remaining activity at 30 µM (40 mV, 1PBC conc 30, read-out: relative current in 1PBC (avr)): 67.1%
remaining activity at 100 µM (40 mV, 1PBC conc 100, read-out: relative current in 1PBC (avr)): 32.9%
IC50 (60 mV): 48.9 µM
remaining activity at 3 µM (60 mV, 1PBC conc 3, read-out: relative current in 1PBC (avr)): 92.4%
remaining activity at 10 µM (60 mV, 1PBC conc 10, read-out: relative current in 1PBC (avr)): 84.6%
remaining activity at 30 µM (60 mV, 1PBC conc 30, read-out: relative current in 1PBC (avr)): 64.2%
remaining activity at 100 µM (60 mV, 1PBC conc 100, read-out: relative current in 1PBC (avr)): 30%
log-fold IC50 (change of mutant vs WT) (80 mV): 1.35
IC50 (80 mV): 45.8 µM
remaining activity at 3 µM (80 mV, 1PBC conc 3, read-out: relative current in 1PBC (avr)): 93.3%
remaining activity at 10 µM (80 mV, 1PBC conc 10, read-out: relative current in 1PBC (avr)): 84%
remaining activity at 30 µM (80 mV, 1PBC conc 30, read-out: relative current in 1PBC (avr)): 62.6%
remaining activity at 100 µM (80 mV, 1PBC conc 100, read-out: relative current in 1PBC (avr)): 27.8%
IC50 (100 mV): 45 µM
remaining activity at 3 µM (100 mV, 1PBC conc 3, read-out: relative current in 1PBC (avr)): 94.2%
remaining activity at 10 µM (100 mV, 1PBC conc 10, read-out: relative current in 1PBC (avr)): 83.7%
remaining activity at 30 µM (100 mV, 1PBC conc 30, read-out: relative current in 1PBC (avr)): 62.5%
remaining activity at 100 µM (100 mV, 1PBC conc 100, read-out: relative current in 1PBC (avr)): 26.8%
IC50 (120 mV): 45.1 µM
remaining activity at 3 µM (120 mV, 1PBC conc 3, read-out: relative current in 1PBC (avr)): 95.5%
remaining activity at 10 µM (120 mV, 1PBC conc 10, read-out: relative current in 1PBC (avr)): 83.7%
remaining activity at 30 µM (120 mV, 1PBC conc 30, read-out: relative current in 1PBC (avr)): 62.1%
remaining activity at 100 µM (120 mV, 1PBC conc 100, read-out: relative current in 1PBC (avr)): 27%
IC50 (140 mV): 48.5 µM
remaining activity at 3 µM (140 mV, 1PBC conc 3, read-out: relative current in 1PBC (avr)): 97.8%
remaining activity at 10 µM (140 mV, 1PBC conc 10, read-out: relative current in 1PBC (avr)): 86.2%
remaining activity at 30 µM (140 mV, 1PBC conc 30, read-out: relative current in 1PBC (avr)): 63.1%
remaining activity at 100 µM (140 mV, 1PBC conc 100, read-out: relative current in 1PBC (avr)): 28.2%
SMILES: N#Cc1c(C(F)(F)F)cc(O)n2c1nc1ccccc12 [1PBC]
